Test results published in US8431525B2, “Coelenteramide analogs” (JNC Corporation, priority 2009, dated 2013).

Columns and labels:
[1] = Fluorescence spectrum and fluorescence quantum yield of CTMD analogs at 750 nM (Example 1); format: physicochemical; settings: for Fluorescence quantum yield (PB) / λmax (PB)/nm: 67 mM phosphate buffer pH 7.4, 750 nM; for Fluorescence quantum yield (PB) / λmax (PB)/nm / λmax (MeOH)/nm / Fluorescence quantum yield (MeOH): 25° C., excited at 330 nm; for Fluorescence quantum yield (PB) / Fluorescence quantum yield (MeOH): relative to quinine sulfate 0.55; for λmax (PB)/nm / λmax (MeOH)/nm: fluorescence emission; for λmax (MeOH)/nm / Fluorescence quantum yield (MeOH): methanol, 750 nM; for fluorescence properties compared with known CTMD (c-4) or h-CTMD (c-13): from TABLE 1
Protocol: The fluorescence quantum yield of each CTMD analog synthesized was determined by the following procedure. The fluorescence spectrum was measured at 25° C. using a spectrofluorometer FP-6500 of JASCO (JASCO Corp., Tokyo). Specifically, the CTMD analog was dissolved in methanol (MeOH) or in 67 mM phosphate buffer (PB) (pH 7.4) at a final concentration of 750 nM using a quartz cell (light path length of 10 mm). Measurement was performed 3 times at the excited wavelength of 330 nm, emission/excitation band width of 3 nm, response of 0.5 second and scanning rate of 100 nm/min. The average was taken as the fluorescence spectrum of the compound. The fluorescence quantum yield was determined after the spectrum was corrected.
Quinine sulfate was used as a standard for determining the fluorescence quantum yield. After quinine sulfate (Wako Pure Chemical Industries) was dissolved in 0.1N sulfuric acid aqueous solution, measurement was performed at the excitation light of 366 nm under the conditions for fluorescence measurements described above. The relative fluorescence quantum yield (fluorescence intensity) of the compound was calculated relative to the quantum yield of quinine sulfate as being 0.55.

SMILES | Fluorescence quantum yield (PB) [1] | λmax (PB)/nm [1] | λmax (MeOH)/nm [1] | Fluorescence quantum yield (MeOH) [1] | melting point | fluorescence properties compared with known CTMD (c-4) or h-CTMD (c-13) [1]
O=C(Cc1ccccc1)Nc1ncc(-c2ccc(O)cc2)nc1Cc1ccccc1 [c-13, 3-Benzyl-5-(4-hydroxyphenyl)-2-(phenylacetylamino)pyrazine] | 0.003 | 399 nm | 424.5 nm | 0.010 | 259 to 261 °C | –
O=S(=O)(Cc1ccccc1)Nc1ncc(-c2ccc(O)cc2)nc1Cc1ccccc1 [c-15, 3-Benzyl-2-benzylsulfonylamino-5-(4-hydroxyphenyl)pyrazine] | 0.137 | 435.5 nm | 429.5 nm | 0.066 | 144 to 147 °C (dec.) | different fluorescence properties
COc1ccc(-c2cnc(NC(=O)Cc3ccccc3)c(Cc3ccccc3)n2)cc1 [c-16, 3-Benzyl-5-(4-methoxyphenyl)-2-(phenylacetylamino)pyrazine] | 0.181 | 450 nm | 415 nm | 0.342 | 197.5 to 202 °C | –
COc1ccc(-c2cnc(NC(=S)Cc3ccccc3)c(Cc3ccccc3)n2)cc1 [c-17, 3-Benzyl-5-(4-methoxyphenyl)-2-(phenylthioacetylamino)pyrazine] | 0.003 | 445 nm | 417.5 nm | 0.003 | 45 to 47 °C | different fluorescence properties
COc1ccc(-c2cnc(NS(=O)(=O)Cc3ccccc3)c(Cc3ccccc3)n2)cc1 [c-18, 3-Benzyl-2-benzylsulfonylamino-5-(4-methoxyphenyl)pyrazine] | 0.147 | 429 nm | 416.5 nm | 0.293 | 213 to 215 °C | different fluorescence properties
CC(=O)Oc1ccc(-c2cnc(N)c(Cc3ccccc3)n2)cc1 [c-19, 5-(4-Acetoxyphenyl)-2-amino-3-benzylpyrazine] | – | – | – | – | 183.5 to 185.5 °C | –
CC(=O)Oc1ccc(-c2cnc(N(S(=O)(=O)Cc3ccccc3)S(=O)(=O)Cc3ccccc3)c(Cc3ccccc3)n2)cc1 [c-20, 5-(4-Acetoxyphenyl)-3-benzyl-2-bis(benzylsulfonyl)aminopyrazine] | 0.026 | 420 nm | 399.5 nm | 0.185 | 84 to 86.5 °C | different fluorescence properties
COc1ccc(-c2cnc(N(S(=O)(=O)Cc3ccccc3)S(=O)(=O)Cc3ccccc3)c(Cc3ccccc3)n2)cc1 [c-21, 3-Benzyl-2-bis(benzylsulfonyl)amino-5-(4-methoxyphenyl)pyrazine] | 0.059 | 421.5 nm | 417 nm | 0.303 | 78 to 80 °C | different fluorescence properties
COc1ccc(-c2cnc(NC(C)=O)c(Cc3ccccc3)n2)cc1 [c-24, 2-Acetylamino-3-benzyl-5-(4-methoxyphenyl)pyrazine] | 0.199 | 450.5 nm | 415.5 nm | 0.345 | – | –
CC(=O)Oc1ccc(CC(=O)Nc2ncc(-c3ccc(OC(C)=O)cc3)nc2Cc2ccccc2)cc1 [c-29, 5-(4-Acetoxyphenyl)-2-(4-acetoxyphenyl)acetylamino-3-benzylpyrazine] | 0.029 | 386.5 nm | 376.5 nm | 0.086 | 225 to 227 °C | –
CC(=O)Oc1ccc(-c2cnc(NC(=O)Cc3ccccc3)c(Cc3ccccc3)n2)cc1 [c-30, 5-(4-Acetoxyphenyl)-3-benzyl-2-(phenylacetylamino)pyrazine] | 0.040 | 391 nm | 373.5 nm | 0.008 | 228 to 231 °C | –
CC(=O)Oc1ccc(-c2cnc(NS(=O)(=O)Cc3ccccc3)c(Cc3ccccc3)n2)cc1 [c-32, 5-(4-Acetoxyphenyl)-3-benzyl-2-(benzylsulfonylamino)pyrazine] | 0.239 | 420 nm | 404 nm | 0.234 | 240 to 241 °C | different fluorescence properties
CC(=O)Nc1ncc(-c2ccc(OC(C)=O)cc2)nc1Cc1ccccc1 [c-33, 5-(4-Acetoxyphenyl)-2-acetylamino-3-benzylpyrazine] | 0.154 | 384 nm | 375 nm | 0.085 | 215.5 to 217 °C (dec.) | –
CS(=O)(=O)Nc1ncc(-c2ccc(O)cc2)nc1Cc1ccccc1 [c-34, 3-Benzyl-5-(4-hydroxyphenyl)-2-(methanesulfonylamino)pyrazine] | 0.096 | 437 nm | 429 nm | 0.056 | – | different fluorescence properties
Cc1ccc(S(=O)(=O)Nc2ncc(-c3ccc(O)cc3)nc2Cc2ccccc2)cc1 [c-35, 3-Benzyl-5-(4-hydroxyphenyl)-2-[(4-methylphenyl)sulfonylamino]pyrazine] | 0.107 | 435 nm | 430.5 nm | 0.069 | 181 to 182.5 °C | different fluorescence properties
O=S(=O)(Cc1ccccc1)Nc1ncc(-c2ccccc2)nc1Cc1ccccc1 [c-37, 3-Benzyl-2-benzylsulfonylamino-5-phenylpyrazine] | 0.227 | 419.5 nm | 402.5 nm | 0.196 | 207 to 208.5 °C | different fluorescence properties
CC(=O)Oc1ccc(-c2cnc(N(S(C)(=O)=O)S(C)(=O)=O)c(Cc3ccccc3)n2)cc1 [c-39, 5-(4-Acetoxyphenyl)-3-benzyl-2-bis(methanesulfonyl)aminopyrazine] | 0.096 | 419 nm | 381.5 nm | 0.079 | 165.5 to 167 °C | different fluorescence properties
CC(=O)Oc1ccc(-c2cnc(N(S(=O)(=O)Cc3ccc(I)cc3)S(=O)(=O)Cc3ccc(I)cc3)c(Cc3ccccc3)n2)cc1 [c-46, 5-(4-Acetoxyphenyl)-3-benzyl-2-bis(4-iodobenzylsulfonyl)aminopyrazine] | – | – | – | – | 166 to 167 °C | –
